Our source for the IC50 values is patent publication US11180474B2 (BRISTOL-MYERS SQUIBB COMPANY, priority 2016, dated 2021).

As a reminder, the IC50 is the midpoint of a concentration-inhibition curve. A higher IC50 goes with lower potency.

The target in test [1] is T1, human TLR8 (Homo sapiens, UniProt Q9NR97).
T1 construct: host or cells: HEK-Blue cells
T1 sequence (Q9NR97 27-1041): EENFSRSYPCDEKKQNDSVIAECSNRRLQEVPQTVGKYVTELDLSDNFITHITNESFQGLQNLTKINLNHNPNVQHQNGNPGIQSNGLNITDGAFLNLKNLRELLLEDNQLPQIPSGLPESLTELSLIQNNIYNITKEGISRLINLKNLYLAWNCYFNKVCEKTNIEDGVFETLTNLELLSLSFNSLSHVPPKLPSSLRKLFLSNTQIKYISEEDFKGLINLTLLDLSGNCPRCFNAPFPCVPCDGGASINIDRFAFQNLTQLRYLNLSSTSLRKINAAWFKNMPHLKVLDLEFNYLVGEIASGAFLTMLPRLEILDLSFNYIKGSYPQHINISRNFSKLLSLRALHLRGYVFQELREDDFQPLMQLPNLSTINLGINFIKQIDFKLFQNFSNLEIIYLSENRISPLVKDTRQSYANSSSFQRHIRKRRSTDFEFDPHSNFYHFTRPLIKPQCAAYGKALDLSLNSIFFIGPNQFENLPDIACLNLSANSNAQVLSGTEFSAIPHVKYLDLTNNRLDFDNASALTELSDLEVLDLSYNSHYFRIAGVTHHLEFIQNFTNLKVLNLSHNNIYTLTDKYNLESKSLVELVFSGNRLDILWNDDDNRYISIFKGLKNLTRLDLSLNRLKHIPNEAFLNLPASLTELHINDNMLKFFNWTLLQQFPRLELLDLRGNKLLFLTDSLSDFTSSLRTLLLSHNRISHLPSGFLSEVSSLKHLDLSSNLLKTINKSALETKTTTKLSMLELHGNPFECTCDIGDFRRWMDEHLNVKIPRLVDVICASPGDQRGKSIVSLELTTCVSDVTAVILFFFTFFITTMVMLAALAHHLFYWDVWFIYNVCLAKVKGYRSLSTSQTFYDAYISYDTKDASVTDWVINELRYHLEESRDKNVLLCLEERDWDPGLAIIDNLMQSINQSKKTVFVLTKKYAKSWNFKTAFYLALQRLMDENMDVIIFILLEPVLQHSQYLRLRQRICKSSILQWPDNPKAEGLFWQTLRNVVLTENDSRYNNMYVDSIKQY
The test is described as follows: TLR8 inhibition reporter assay (HEK-Blue cells, SEAP reporter, R848 stimulation). Particulars: HEK-Blue cells overexpressing human TLR8, R848 15.9 μM. It is filed as cell-based. An outline of the steps:
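HEK-Blue reporter cells (15,000/well TLR7, 20,000 TLR8) exposed to compound over 0.05 nM–50 μM, agonist-stimulated (R848 for TLR8, gardiquimod for TLR7), 22 h at 37 °C, 5% CO2. SEAP read with HEK-Blue Detection; % inhibition relative to agonist-plus-DMSO and known-inhibitor controls.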

Test [2] has as its target T2, human TLR9 (Homo sapiens, UniProt Q9NR96).
T2 construct: host or cells: HEK-Blue cells
T2 sequence (Q9NR96 26-1032): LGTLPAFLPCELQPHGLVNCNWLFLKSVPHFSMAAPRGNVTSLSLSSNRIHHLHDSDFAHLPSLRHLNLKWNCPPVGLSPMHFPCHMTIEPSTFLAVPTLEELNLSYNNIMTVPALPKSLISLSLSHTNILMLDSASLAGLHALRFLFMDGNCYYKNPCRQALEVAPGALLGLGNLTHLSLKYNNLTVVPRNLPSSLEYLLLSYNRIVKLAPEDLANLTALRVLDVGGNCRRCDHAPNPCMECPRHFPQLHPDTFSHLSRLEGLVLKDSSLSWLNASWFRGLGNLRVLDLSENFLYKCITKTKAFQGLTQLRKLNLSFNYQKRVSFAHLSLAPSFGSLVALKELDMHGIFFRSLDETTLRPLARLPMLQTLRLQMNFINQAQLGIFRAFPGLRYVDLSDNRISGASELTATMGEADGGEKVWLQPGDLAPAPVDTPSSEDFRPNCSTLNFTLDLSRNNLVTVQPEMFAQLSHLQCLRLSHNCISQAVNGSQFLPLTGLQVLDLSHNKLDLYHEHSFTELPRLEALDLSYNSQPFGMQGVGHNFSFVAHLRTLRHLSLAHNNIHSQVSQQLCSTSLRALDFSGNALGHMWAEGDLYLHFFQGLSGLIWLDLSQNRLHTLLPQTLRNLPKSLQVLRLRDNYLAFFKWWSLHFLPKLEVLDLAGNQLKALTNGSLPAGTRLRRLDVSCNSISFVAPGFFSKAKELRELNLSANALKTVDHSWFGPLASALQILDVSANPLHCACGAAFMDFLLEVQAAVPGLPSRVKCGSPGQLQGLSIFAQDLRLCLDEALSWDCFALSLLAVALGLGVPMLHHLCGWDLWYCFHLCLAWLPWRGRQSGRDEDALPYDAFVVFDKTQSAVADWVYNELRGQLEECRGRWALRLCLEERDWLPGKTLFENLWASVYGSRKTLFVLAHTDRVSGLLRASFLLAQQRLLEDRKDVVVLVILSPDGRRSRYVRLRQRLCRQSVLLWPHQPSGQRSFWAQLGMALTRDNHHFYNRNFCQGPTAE
The test is described as follows: TLR9 inhibition reporter assay (HEK-Blue cells, SEAP reporter, ODN2006 stimulation). Particulars: HEK-Blue cells overexpressing human TLR9, ODN2006 5 nM. It is filed as cell-based. An outline of the steps:
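Agonists used: gardiquimod 7.5 μM (TLR7), R848 15.9 μM (TLR8), ODN2006 5 nM (TLR9), added after 30 min room-temperature compound pre-treatment (0.05 nM–50 μM) of receptor-overexpressing HEK-Blue cells. SEAP reporter (NF-κB/AP-1 driven) read after 22 h at 37 °C; inhibition scaled between agonist+DMSO and reference-inhibitor wells.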
For orientation: In a reporter assay the amount or activity of a reporter protein is the signal.

Turning to `COc1ccc(-c2[nH]c3ccc(C4CCN(C(=O)CNC[C@H](O)CO)CC4)cc3c2C(C)C)cc1OC` [Example 235, (S)-2-((2,3-dihydroxypropyl)amino)-1-(4-(2-(3,4-dimethoxyphenyl)-3-isopropyl-1H-indol-5-yl)piperidin-1-yl)ethan-1-one], the IC50 in test [1] amounted to 39 nM; in test [2], 774 nM.

As to `COc1ccc(-c2[nH]c3ccc(C4CCN(Cc5cncn5C)CC4)cc3c2C(C)C)cc1OC` [Example 258, 2-(3,4-dimethoxyphenyl)-3-isopropyl-5-(1-((1-methyl-1H-imidazol-5-yl)methyl)piperidin-4-yl)-1H-indole], the IC50 in test [1] stood at 17 nM; in test [2] it was 1440 nM.

In the case of `COc1ccc(-c2[nH]c3ccc(C4CCNCC4O)cc3c2C(C)C)cc1OC` (single isomer, unassigned) [Example 318, 4-(2-(3,4-dimethoxyphenyl)-3-isopropyl-1H-indol-5-yl)piperidin-3-ol 2,2,2-trifluoroacetate], the IC50 stood at 6070 nM in test [1] and 11200 nM in test [2].

As to `COc1ccc(-c2[nH]c3ccc(C4CCN(CC(=O)NCCCO)CC4)cc3c2C(C)C)cc1OC` [Example 277, 2-(4-(2-(3,4-dimethoxyphenyl)-3-isopropyl-1H-indol-5-yl)piperidin-1-yl)-N-(3-hydroxypropyl)acetamide], the values for the IC50 in test [1] and in test [2] were 37 nM and 4980 nM, respectively.

On to `COc1ccc(-c2[nH]c3ccc(C4CCN(CC(=O)N(C)C)CC4)cc3c2C(C)C)cc1OC` [Example 312, 2-(4-(2-(3,4-dimethoxyphenyl)-3-isopropyl-11H-indol-5-yl)piperidin-1-yl)-N,N-dimethylacetamide], for which the IC50 in test [1] was 28 nM; in test [2] it was 1370 nM.

Take `COc1ccc(-c2[nH]c3ccc(C4CCN(C(=O)CN5CCN(CC(=O)NC(C)C)CC5)CC4)cc3c2C(C)C)cc1OC` [Example 229, 2-(4-(2-(4-(2-(3,4-dimethoxyphenyl)-3-isopropyl-1H-indol-5-yl)piperidin-1-yl)-2-oxoethyl)piperazin-1-yl)-N-isopropylacetamide]: the IC50 in test [1] is 43 nM; in test [2] it was 4980 nM.

In the case of `COc1ccc(-c2[nH]c3ccc(C4CCN(C(=O)CN[C@H](CO)CC(C)C)CC4)cc3c2C(C)C)cc1OC` [Example 231, (S)-1-(4-(2-(3,4-dimethoxyphenyl)-3-isopropyl-1H-indol-5-yl)piperidin-1-yl)-2-((1-hydroxy-4-methylpentan-2-yl)amino)ethan-1-one], the results for the IC50 in test [1] and in test [2] were 63 nM and 1930 nM, respectively.

On to `COc1ccc(-c2[nH]c3ccc(C4CCN(C(=O)CN5CCC[C@H](C(=O)N6C(C)CCC6C)C5)CC4)cc3c2C(C)C)cc1OC` (stereo partly drawn) [Example 300, 1-(4-(2-(3,4-dimethoxyphenyl)-3-isopropyl-1H-indol-5-yl)piperidin-1-yl)-2-((3S)-3-(2,5-dimethylpyrrolidine-1-carbonyl)piperidin-1-yl)ethan-1-one], for which the IC50 in test [1] was found to be 70 nM; in test [2], 321 nM.

Turning to `COc1ccc(-c2[nH]c3ccc(C4CCN(C(=O)CNC5CCC(O)CC5)CC4)cc3c2C(C)C)cc1OC` (centres unmarked) [Example 246, 1-(4-(2-(3,4-dimethoxyphenyl)-3-isopropyl-1H-indol-5-yl)piperidin-1-yl)-2-((4-hydroxycyclohexyl)amino)ethan-1-one], the IC50 worked out at 19 nM in test [1] and 664 nM in test [2].

With `COc1ccc(-c2[nH]c3ccc(C4CCN(C(=O)CNCCOCCO)CC4)cc3c2C(C)C)cc1OC` [Example 230, 1-(4-(2-(3,4-dimethoxyphenyl)-3-isopropyl-1H-indol-5-yl)piperidin-1-yl)-2-((2-(2-hydroxyethoxy)ethyl)amino)ethan-1-one], the IC50 is 18 nM in test [1] and 2200 nM in test [2].

`COc1ccc(-c2[nH]c3ccc(C4CCN(C(=O)CN5CCC[C@H](C(=O)NC6(CO)CCCC6)C5)CC4)cc3c2C(C)C)cc1OC` [Example 296, (S)-1-(2-(4-(2-(3,4-dimethoxyphenyl)-3-isopropyl-1H-indol-5-yl)piperidin-1-yl)-2-oxoethyl)-N-(1-(hydroxymethyl)cyclopentyl)piperidine-3-carboxamide]: the IC50 in test [1] stood at 22 nM; in test [2], 3030 nM.

For the molecule `COc1ccc(-c2[nH]c3ccc(C4CCN(CC(=O)N5CCCC(CO)C5)CC4)cc3c2C(C)C)cc1OC` (centres unmarked) [Example 275, 2-(4-(2-(3,4-dimethoxyphenyl)-3-isopropyl-1H-indol-5-yl)piperidin-1-yl)-1-(3-(hydroxymethyl)piperidin-1-yl)ethan-1-one], the IC50 in test [1] came out at 22 nM; in test [2], 1660 nM.

Take `COc1ccc(-c2[nH]c3ccc(C4CCN(C(=O)CN5CCCC(C(=O)NC6CCN(C(C)C)CC6)C5)CC4)cc3c2C(C)C)cc1OC` (single isomer, unassigned) [Example 280, 1-(2-(4-(2-(3,4-dimethoxyphenyl)-3-isopropyl-1H-indol-5-yl)piperidin-1-yl)-2-oxoethyl)-N-(1-isopropylpiperidin-4-yl)piperidine-3-carboxamide]: the figures for the IC50 in test [1] and in test [2] were 22 nM and 417 nM, respectively.

Turning to `COc1ccc(-c2[nH]c3ccc(C4CCN(C(=O)CN5CCC[C@H](C(=O)N6CCN(C(C)=O)CC6)C5)CC4)cc3c2C(C)C)cc1OC` [Example 284, (S)-2-(3-(4-acetylpiperazine-1-carbonyl)piperidin-1-yl)-1-(4-(2-(3,4-dimethoxyphenyl)-3-isopropyl-1H-indol-5-yl)piperidin-1-yl)ethan-1-one], the IC50 in test [1] is 25 nM; in test [2] it was 4610 nM.

On to `COc1ccc(-c2[nH]c3ccc(C4CCN(C(=O)CN5CCC[C@H](C(=O)N6CCCC6)C5)CC4)cc3c2C(C)C)cc1OC` [Example 287, (S)-1-(4-(2-(3,4-dimethoxyphenyl)-3-isopropyl-1H-indol-5-yl)piperidin-1-yl)-2-(3-(pyrrolidine-1-carbonyl)piperidin-1-yl)ethan-1-one], for which the IC50 is 33 nM in test [1] and 2280 nM in test [2].

With `COc1ccc(-c2[nH]c3ccc(C4CCN(C(=O)CN5CCC[C@@H](C(=O)N6CC7CNCC7C6)C5)CC4)cc3c2C(C)C)cc1OC` (stereo partly drawn) [Example 310, 1-(4-(2-(3,4-dimethoxyphenyl)-3-isopropyl-1H-indol-5-yl)piperidin-1-yl)-2-((3R)-3-(octahydropyrrolo[3,4-c]pyrrole-2-carbonyl)piperidin-1-yl) ethan-1-one], the half-inhibitory concentration (IC50) stood at 488 nM in test [1] and 5230 nM in test [2].
